pEC50: −log10 of the molar value.
Biological target: T1, human F508del CFTR (Homo sapiens, UniProt P13569, DEL508-508)
T1 construct: expressed in transfected cells; host or cells: Fisher Rat Thyroid (FRT) cells
Assay: CFTR-YFP High Throughput Assay
Format: cell-based
Details: FRT cells expressing human F508del CFTR and YFP; for Emax: EMax normalized to the positive control, read-out: % Efficacy
Procedure: Assays for Detecting and Measuring the Effect of Compounds on F508del-CFTR Channels CFTR-YFP High Throughput Assay-CFTR Corrector Protocol:
This protocol is designed to selectively screen small molecule compounds for F508del CFTR corrector activities in the HTS YFP (yellow fluorescent protein) flux assay. In this protocol, the cells are incubated with testing compounds for 24 hours, washed with PBS, stimulated with forskolin and a standard potentiator, and fluorescence in each plate well is measured kinetically read on a 384-well HTS plate reader, such as the Hamamatsu FDSS-6000.
YFP fluorescence intensity values are acquired at high speed before and after iodide buffer is injected to the assay cells. Iodide enters the cells via active CFTR channels in the plasma membrane, and quenches the YFP fluorescence. The rate of fluorescence quenching is proportionate to the total CFTR activity in the cell membrane. F508del CFTR correctors increase the number of CFTR molecules in the testing cell plasma membrane, and thereby accelerate YFP quenching.
This method was initially developed for bench top plate readers (Galietta et al., 2001), and was adapted to the HTS format (Sui et al. Assay Drug Dev. Technol. 2010).
Fisher Rat Thyroid (FRT) cells stably expressing both human F508del CFTR and a halide-sensitive yellow fluorescent protein (YFP-H148Q/I152L 25,22) (Galietta et al. Am. J. Physiol Cell Physiol 281(5), C1734, 2001) were cultured on plastic surface in Coon's modified Ham's F12 medium supplemented with FBS 10%, L-glutamine 2 mM, penicillin 100 U/ml, and streptomycin 100 µg/ml. G418 (0.75-1.0 mg/ml) and zeocin (3.2 ug/ml) were used for selection of FRT cells expressing F508del CFTR and YFP. For primary screening, FRT cells were plated into 384-well black wall, transparent bottom microtiter plates (Costar; Corning Inc.) at a cell density of 20,000-40,000 per well. Test compound was applied to the cells at varying concentrations ranging from 2 nM-40 μM in either a 2-fold or 3-fold dilution series. Cells were incubated in a cell culture incubator at 37° C. with 5% CO2 for 24-26 h. Assay plates were washed with DPBS media (Thermo, cat# SH30028.02) to remove unbound cells and compound. Stimulation media (25 μL) containing 20 μM Forskolin & 30 μM P3 [6-(Ethyl-phenyl-sulfonyl)-4-oxo-1,4-dihydro-quinoline-3-carboxylic acid 2-methoxy-benzylamide] in Hams F-12 coon's modified media was added to the plate wells and incubated at room temperature for 60-120 min. […] (10 mM HEPES, 1 mM MgCl2, 3 mM KCl, 1 mM CaCl2, 150 mM NaI) was then added and fluorescence quench curves (Excitation 500 nm/Emission 540 nm; exposure 136 ms) were immediately recorded on an FDSS-6000 plate reader (Hamamatsu). Quench rates were derived from least squares fitting of the data as described by Sui et al (2010).
CFTR-YFP High Throughput Assay-CFTR Potentiator Protocol:
This protocol is designed to selectively screen small molecule compounds for F508del CFTR potentiator activities in the HTS YFP flux assay. Such compounds act acutely to stimulate CFTR already expressed on the membrane surface. In this protocol, the cells are incubated at 27° C. for 24 hours to homogeneously boost F508del CFTR expression in the cell membrane (low temperature correction), washed with PBS, treated with test compound, and CFTR activity is stimulated with forskolin for 1-2 hr. Measurement of ion flux is initiated by addition of iodide-containing buffer, and YFP quenching is kinetically recorded using a 384-well HTS plate reader, such as the Hamamatsu FDSS-6000.
YFP fluorescence intensity values are acquired at high speed over a 1 min time course before and after iodide buffer is injected to the assay cells. Iodide enters the cells via active CFTR channels in the plasma membrane, and quenches the YFP fluorescence. The rate of fluorescence quenching is proportionate to total CFTR activity in the cell membrane. […]

T1 sequence (P13569 with tags, fused parts or gaps DEL508-508): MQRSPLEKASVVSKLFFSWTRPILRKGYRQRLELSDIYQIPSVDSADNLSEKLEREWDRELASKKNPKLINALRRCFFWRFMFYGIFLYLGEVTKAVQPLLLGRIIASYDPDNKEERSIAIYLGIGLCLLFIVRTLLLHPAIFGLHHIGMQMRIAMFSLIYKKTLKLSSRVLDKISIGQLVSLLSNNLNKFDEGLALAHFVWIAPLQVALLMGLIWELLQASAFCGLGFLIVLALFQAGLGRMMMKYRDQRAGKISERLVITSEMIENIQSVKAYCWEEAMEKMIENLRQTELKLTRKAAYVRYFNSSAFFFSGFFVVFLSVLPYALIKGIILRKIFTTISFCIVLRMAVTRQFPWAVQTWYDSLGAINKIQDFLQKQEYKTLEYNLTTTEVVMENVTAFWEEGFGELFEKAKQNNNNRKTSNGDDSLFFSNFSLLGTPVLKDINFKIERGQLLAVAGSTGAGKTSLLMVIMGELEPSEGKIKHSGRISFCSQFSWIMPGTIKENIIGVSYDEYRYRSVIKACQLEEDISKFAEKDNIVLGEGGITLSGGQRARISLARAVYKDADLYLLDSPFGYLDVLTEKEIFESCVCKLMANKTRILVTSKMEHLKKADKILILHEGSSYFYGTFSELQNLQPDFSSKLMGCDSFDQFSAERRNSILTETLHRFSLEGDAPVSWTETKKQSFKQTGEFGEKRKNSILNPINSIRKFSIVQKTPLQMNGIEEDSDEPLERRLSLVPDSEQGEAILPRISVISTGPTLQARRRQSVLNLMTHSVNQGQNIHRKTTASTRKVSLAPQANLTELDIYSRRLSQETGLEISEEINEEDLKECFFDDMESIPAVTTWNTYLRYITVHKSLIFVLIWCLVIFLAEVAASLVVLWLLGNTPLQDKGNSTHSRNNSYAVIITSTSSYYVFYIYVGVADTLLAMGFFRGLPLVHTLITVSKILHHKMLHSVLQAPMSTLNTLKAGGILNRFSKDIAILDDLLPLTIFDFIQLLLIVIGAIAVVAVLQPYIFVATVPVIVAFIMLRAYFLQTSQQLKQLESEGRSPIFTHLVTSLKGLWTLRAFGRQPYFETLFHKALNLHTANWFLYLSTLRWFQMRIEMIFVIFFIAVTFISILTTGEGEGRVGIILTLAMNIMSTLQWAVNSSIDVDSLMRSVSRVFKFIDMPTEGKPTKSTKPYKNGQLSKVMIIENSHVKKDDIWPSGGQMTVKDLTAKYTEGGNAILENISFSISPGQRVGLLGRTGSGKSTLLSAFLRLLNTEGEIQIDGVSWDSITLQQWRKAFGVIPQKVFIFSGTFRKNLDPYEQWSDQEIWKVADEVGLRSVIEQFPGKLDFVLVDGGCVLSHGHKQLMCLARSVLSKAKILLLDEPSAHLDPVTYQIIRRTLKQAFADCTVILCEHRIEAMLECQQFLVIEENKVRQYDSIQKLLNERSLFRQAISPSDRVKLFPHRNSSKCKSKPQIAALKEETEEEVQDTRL

Emax [%] | pEC50 | Structure (SMILES)
30 to 80 | > 5.00 | CCN(C(=O)c1nn(C[C@@H](O)COCc2ccccc2)c(=O)c2c1c1ccccc1n2C)c1ccccc1 [Example 230, (R)-3-(3-(benzyloxy)-2-hydroxypropyl)-N-ethyl-5-methyl-4-oxo-N-phenyl-4,5-dihydro-3H-pyridazino[4,5-b]indole-1-carboxamide]
30 to 80 | > 5.00 | CCc1ccc(N(CC)C(=O)Cn2nc(Cc3cccnc3)c3cc(Cl)c(Cl)cc3c2=O)cc1 [Example 38, 2-(6,7-dichloro-1-oxo-4-(pyridin-3-ylmethyl)phthalazin-2(1H)-yl)-N-ethyl-N-(4-ethylphenyl)acetamide]
30 to 80 | < 4.70 | CCc1ccc(N(CC)C(=O)Cn2nc(-c3ccc(C(=O)O)cc3)c3ccccc3c2=O)cc1 [Example 14, 4-(3-(2-(ethyl(4-ethylphenyl)amino)-2-oxoethyl)-4-oxo-3,4-dihydrophthalazin-1-yl)benzoic acid]
30 to 80 | – | CCN(C(=O)c1nn(-c2ccncc2)c(=O)c2c1c1ccccc1n2C)c1ccccc1 [Example 169, N-ethyl-5-methyl-4-oxo-N-phenyl-3-(pyridin-4-yl)-4,5-dihydro-3H-pyridazino[4,5-b]indole-1-carboxamide]
30 to 80 | > 5.00 | CCN(C(=O)Cn1ncc2c(c1=O)c1ccccc1n2Cc1ccc(OC)cc1)c1ccc2c(c1)OC(F)(F)O2 [Example 136, N-(2,2-difluorobenzo[d][1,3]dioxol-5-yl)-N-ethyl-2-(5-(4-methoxybenzyl)-1-oxo-1H-pyridazino[4,5-b]indol-2(5H)-yl)acetamide]
> 80 | > 5.00 | CCOC(=O)c1ccc2c(=O)n(CC(=O)N(C)c3ccc4nc(C)oc4c3)nc(-c3cccc(Cl)c3)c2c1 [Example 66, ethyl 1-(3-chlorophenyl)-3-(2-(methyl(2-methylbenzo[d]oxazol-6-yl)amino)-2-oxoethyl)-4-oxo-3,4-dihydrophthalazine-7-carboxylate]
30 to 80 | – | CCc1ccc(N(CC)C(=O)Cn2nc(Cc3cccnc3)c3cccc(C)c3c2=O)cc1 [Example 30, N-ethyl-N-(4-ethylphenyl)-2-(8-methyl-1-oxo-4-(pyridin-3-ylmethyl)phthalazin-2(1H)-yl)acetamide]
30 to 80 | – | CCN(C(=O)c1nn(-c2ccc(C)cc2)c(=O)c2c1c1ccccc1n2C)c1cc(Cl)ccc1C(=O)O [Example 183, 4-chloro-2-(N-ethyl-5-methyl-4-oxo-3-(p-tolyl)-4,5-dihydro-3H-pyridazino[4,5-b]indole-1-carboxamido)benzoic acid]
30 to 80 | > 5.00 | CCOC(=O)c1ccc2c(=O)n(CC(=O)N(C)c3ccc4nc(C)oc4c3)nc(-c3cccc(F)c3)c2c1 [Example 68, ethyl 4-(3-fluorophenyl)-2-(2-(methyl(2-methyl-benzo[d]oxazol-6-yl)amino)-2-oxoethyl)-1-oxo-1,2-dihydrophthalazine-6-carboxylate]
30 to 80 | – | CCN(C(=O)c1nn(-c2ccc(C)cc2)c(=O)c2c1c1ccccc1n2C)c1cccnc1 [Example 157, N-ethyl-5-methyl-4-oxo-N-(pyridin-3-yl)-3-(p-tolyl)-4,5-dihydro-3H-pyridazino[4,5-b]indole-1-carboxamide]

More lines, now with the values behind:

Structure (SMILES) | Emax [%] | pEC50
CCN(C(=O)c1nn(-c2ccccc2)c(=O)c2c1c1ccccc1n2C)c1ncccn1 [Example 162, N-ethyl-5-methyl-4-oxo-3-phenyl-N-(pyrimidin-2-yl)-4,5-dihydro-3H-pyridazino[4,5-b]indole-1-carboxamide] | 30 to 80 | –
CCN(C(=O)c1nn(CC(=O)N2CCOCC2)c(=O)c2c1c1ccccc1n2C)c1ccccc1 [Example 215, N-ethyl-5-methyl-3-(2-morpholino-2-oxoethyl)-4-oxo-N-phenyl-4,5-dihydro-3H-pyridazino[4,5-b]indole-1-carboxamide] | 30 to 80 | > 5.00
CCc1ccc(N(CC)C(=O)Cn2nc(Cc3cccnc3)c3ccncc3c2=O)cc1 [Example 41, N-ethyl-N-(4-ethylphenyl)-2-(4-oxo-1-(pyridin-3-ylmethyl)pyrido[3,4-d]pyridazin-3(4H)-yl)acetamide] | 30 to 80 | > 5.00
CCN(CC)C(=O)c1nn(CC(=O)N(CC)c2ccc3c(c2)OC(F)(F)O3)c(=O)c2c1c1ccccc1n2C [Example 206, 3-(2-((2,2-difluorobenzo[d][1, 3]dioxol-5-yl)(ethyl)amino)-2-oxoethyl)-N,N-diethyl-5-methyl-4-oxo-4,5-dihydro-3H-pyridazino[4,5-b]indole-1-carboxamide] | 30 to 80 | –
Cn1c2ccccc2c2c(-c3ccccc3)nn(-c3ccccc3)c(=O)c21 [Example 235] | 10 to 30 | < 4.70
COc1ccc2c(-c3ccc(S(N)(=O)=O)cc3)nn(CC(=O)N(c3ccc4c(c3)OC(F)(F)O4)C(C)C)c(=O)c2c1 [Example 76, N-(2,2-difluorobenzo[d][1,3]dioxol-5-yl)-N-isopropyl-2-(7-methoxy-1-oxo-4-(4-sulfamoylphenyl)phthalazin-2(1H)-yl)acetamide] | > 80 | –
CCN(C(=O)c1nn(C(C)C)c(=O)c2c1c1ccccc1n2C)c1cccc(Cl)c1 [Example 201, N-(3-chlorophenyl)-N-ethyl-3-isopropyl-5-methyl-4-oxo-4,5-dihydro-3H-pyridazino[4,5-b]indole-1-carboxamide] | 30 to 80 | –
CCc1ccc(N(CC)C(=O)Cn2nc(-c3cccc(N)c3)c3ccccc3c2=O)cc1 [Example 8, 2-(4-(3-aminophenyl)-1-oxophthalazin-2(1H)-yl)-N-ethyl-N-(4-ethylphenyl)acetamide] | 30 to 80 | > 5.00
CCc1ccc(N(CC)C(=O)Cn2nc(C(=O)Nc3cc(Cl)ccc3C(=O)OC)c3ccccc3c2=O)cc1 [Example 130, methyl 4-chloro-2-(3-(2-(ethyl(4-ethylphenyl)amino)-2-oxoethyl)-4-oxo-3,4-dihydrophthalazine-1-carboxamido)benzoate] | 30 to 80 | –
CCN(C(=O)Cn1nc(Cc2cccnc2)c2c(C)cccc2c1=O)c1ccc2c(c1)OC(F)(F)O2 [Example 48, N-(2,2-difluorobenzo[d][1,3]dioxol-5-yl)-N-ethyl-2-(5-methyl-1-oxo-4-(pyridin-3-ylmethyl)phthalazin-2(1H)-yl)acetamide] | 30 to 80 | –
CCc1ccc(N(CC)C(=O)Cn2nc(-c3cccc(C#N)c3)c3ccccc3c2=O)cc1 [Example 17, 2-(4-(3-cyanophenyl)-1-oxophthalazin-2(1H)-yl)-N-ethyl-N-(4-ethylphenyl)acetamide] | 30 to 80 | > 5.00
CCN(C(=O)c1nn(-c2ccc(C)cn2)c(=O)c2c1c1ccccc1n2C)c1ccccc1 [Example 180, N-ethyl-5-methyl-3-(5-methylpyridin-2-yl)-4-oxo-N-phenyl-4,5-dihydro-3H-pyridazino[4,5-b]indole-1-carboxamide] | 10 to 30 | –
Cc1nc2ccc(N(C)C(=O)Cn3ncc4c(c3=O)c3ccccc3n4Cc3ccc(Cl)cc3)cc2o1 [Example 147, 2-(5-(4-chlorobenzyl)-1-oxo-1,5-dihydro-2H-pyridazino[4,5-b]indol-2-yl)-N-methyl-N-(2-methylbenzo[d]oxazol-6-yl)acetamide] | 30 to 80 | > 5.00
CCN(C(=O)c1nn(C2CCN(Cc3ccccc3)CC2)c(=O)c2c1c1ccccc1n2C)c1ccccc1 [Example 198, 3-(1-benzylpiperidin-4-yl)-N-ethyl-5-methyl-4-oxo-N-phenyl-4,5-dihydro-3H-pyridazino[4,5-b]indole-1-carboxamide] | 30 to 80 | –

Reference: patent US10370366B2 (Flatley Discovery Lab, LLC, priority 2013, dated 2019)
